Assay results reported in patent US20040137582A1, “Methods for manufacturing polysaccharide derivatives” (priority 2002, published 2004).

Columns and labels:
[1] = system: human skin fibroblasts; test: Extraction assay, mitochondrial metabolic activity (MTT); conditions: 24 h
Experimental: Cell culture. Primary human skin fibroblasts were grown in DMEM complete medium, at 37° C. in a fully humidified air containing 5% CO2 (IR auto Flow). The cells were fed every 2 to 3 days. When cells reached confluence, the culture medium was discarded and the cells washed with 5 mL of 10 mM phosphate buffered saline (PBS) pH 7.4 (Gibco). The cells were then detached with 2 mL of 0.05% (w/v) trypsin (1:250, from porcine pancreas (Sigma)) solution (PBS supplemented with 0.1% and 0.25% of α-D(+) glucose and EDTA, respectively) for 5 min at 37° C., and 3 mL of DMEM complete medium was added to inactivate the trypsin after cell detachment. The cells were centrifuged (10 min, 2500 rpm) and resuspended in culture medium before use. Cultures between the 3rd and 7th passages were used in the entire work.
All solutions were prepared on the day of application.
Extraction assay. The extraction assay was performed in two sets of hydrogels. […] In the second set the hydrogels obtained after the polymerization reaction were immersed in 10 mL of 10 mM citrate-phosphate pH 7.0 and immediately autoclaved. Extracts were obtained by immersing autoclaved hydrogels in DMEM (without phenol red) culture medium supplemented with 1% of fungizone and 0.5% of gentamicin, at 37° C., for 5 days with agitation (120 rpm). The ratio between the surface area of the material and the volume of extraction medium was 3 cm^2/mL. Following incubation the medium containing the extract was collected, filtered (0.22 μm; to eliminate the possible presence of solid particles of the material) and supplemented with 10% of serum. Human skin fibroblasts were plated in 96-well plates (TPP, Switzerland) and grown to subconfluency. The culture medium was removed and replaced with the extract media for 24 h at 37° C. Phenol (64 g/L, BDH) which is considered cytotoxic^17, was used as a positive control. Culture medium without extracts, incubated as described above, was used as a negative control. Following incubation the extracts were discarded and the mitochondrial metabolic activity of the cells was measured with the MTT assay.
Mitochondrial metabolic activity assay. For 96-well plates, the cell layers were rinsed with PBS (110 μL) and 110 μL of MTT (0.45 mg/mL in DMEM complete medium w/o phenol red) was added to each well. For 6-well plates, after PBS washing (1 mL), 2.5 mL of MTT solution was added. After 3 h incubation at 37° C., the MTT solution was removed and the insoluble formazan crystals formed in the bottom of the wells were dissolved in 100 μL or 1 mL of DMSO, for 96 and 6-well plates respectively. The absorbance was measured at 540 nm using a plate reader (STL Spectra III, Austria).

[2] = system: human skin fibroblasts; test: Cell proliferation inhibition index (CPII) assay: direct contact assay; conditions: 72 h
Experimental: Cell proliferation inhibition index (CPII) assay: direct contact assay. […] Since each well has a surface area of 0.31 cm^2, the final seeding density was ca. 5×10^3 cells/cm^2. After 4 h (the cells were adherent to the well bottom), the culture medium was discarded and 200 μL of each test solution was added to each well. For the control culture, the medium was refreshed. Seventy-two hours after the addition of test solutions, the extracts were discarded and the cell layer was washed with PBS to remove remaining materials and loose cells. The metabolic activity of the cells was then measured with the MTT test (see below). The CPII was calculated using eq. 6: [formula]
To evaluate the CPII for dexT70-VA hydrogels (extracted for 3 days in water at 25° C. and then sterilized by autoclave), 3 mL of a fibroblast suspension containing 1.5×10^4 cells/mL was plated into each well of a 6-well plate, to yield a final density of 5×10^3 cells/cm^2. After 4 h, the culture medium was refreshed (3 mL) and the hydrogels were added to the wells, in direct contact with cells (FIG. 1A). For the control culture, the culture medium was refreshed. After 72 h of incubation, the metabolic activity of the cells was assessed as previously described and the CPII calculated according to eq.6.
Mitochondrial metabolic activity assay. […] The absorbance was measured at 540 nm using a plate reader (STL Spectra III, Austria).

| increase in the MMAF ([1]; solution 10 mg/mL) | effect on MMAF ([1]; solution 20-100 mg/mL) | Molecule | effect on MMAF ([1]; concentrations above 2.5 μL/mL) | CPII ([2]; all concentrations) | CPII ([2]; above 2.5 μL/mL) |
| --- | --- | --- | --- | --- | --- |
| ca. 20% | not significant | Dextran [reference compound] |  |  |  |
|  |  | N.N.O=S(=O)(O)OOS(=O)(=O)O [APS, ammonium persulfate] | significant (P<0.001) decrease in MMAF | ca. 90% |  |
|  |  | CN(C)CCN(C)C [TEMED, N,N,N′,N′-tetramethylenediamine] | significant (P<0.001) decrease in MMAF |  | the same phenomenon was observed |
